Test results as given in patent US7078418B1, “1-aziridino-1-hydroxyiminomethyl-derivates, method for the production thereof and medicaments containing said compounds” (priority 1999, dated 2006).
Converted amounts (≈) assume the structure as drawn.

How the values were obtained:
401 NL = assay: monolayer cytotoxicity test (modified propidium iodide assay), 401 NL; type: cell-based; conditions: Breast
From the text: (§1) The compounds pursuant to the invention with the general formula I show antitumoral activity. The antitumoral activities of some compounds pursuant to the invention in the monolayer cytotoxicity test on selected cell lines are shown in Table 1. The low susceptibility of fibroblasts and endothelial cells with the use of the compounds pursuant to the invention is surprising.

HT29 = assay: monolayer cytotoxicity test (modified propidium iodide assay), HT29; type: cell-based; conditions: for IC50 antitumoral activity: Colon
From the text: as §1

[1] = tested on: 12 tumor cell lines (Table 3); conditions: mean over 12 cell lines of Table 3
GXF 251L = assay: monolayer cytotoxicity test (modified propidium iodide assay), GXF 251L; type: cell-based; conditions: Stomach
From the text: as §1

944 LL = assay: monolayer cytotoxicity test (modified propidium iodide assay), 944 LL; type: cell-based; conditions: Kidney
From the text: as §1

LXFL 529 = assay: monolayer cytotoxicity test (modified propidium iodide assay), LXFL 529; type: cell-based; conditions: Lung
From the text: as §1

1138 L = assay: monolayer cytotoxicity test (modified propidium iodide assay), 1138 L; type: cell-based; conditions: Uterus
From the text: as §1

[2] = tested on: 12 tumor cell lines (Table 3); assay: cells; conditions: read-out: mean IC50
[3] = read-out: IC50 antitumoral activity

| IC50 [2] [µg/mL] | Compound | IC50 antitumoral activity (401 NL) [µg/mL] | IC50 antitumoral activity (HT29) [µg/mL] | mean IC50 [1] [µg/mL] | IC50 antitumoral activity (GXF 251L) [µg/mL] | IC50 antitumoral activity (944 LL) [µg/mL] | IC50 antitumoral activity (LXFL 529) [µg/mL] | IC50 antitumoral activity (1138 L) [µg/mL] | IC50 (401 NL; [3]) [µg/mL] | IC50 (HT29; Homo sapiens, HT-29, Colon, read-out: IC50 antitumoral activity) [µg/mL] | IC50 (GXF 251L; [3]) [µg/mL] | IC50 (944 LL; [3]) [µg/mL] | IC50 (LXFL 529; Homo sapiens, read-out: IC50 antitumoral activity) [µg/mL] | IC50 (1138 L; [3]) [µg/mL] |
| --- | --- | --- | --- | --- | --- | --- | --- | --- | --- | --- | --- | --- | --- | --- |
|  | ON=C(c1cccc(C(=NO)N2CC2)n1)N1CC1 [Compound 6, 2,6-Bis(1-aziridino-1-hydroxyiminomethyl)pyridine] | 0.207 (≈ 0.837 µM) | 0.117 (≈ 0.473 µM) | 0.030 | 0.020 (≈ 0.0809 µM) | 0.115 (≈ 0.465 µM) | 0.027 (≈ 0.109 µM) | 0.014 (≈ 0.0566 µM) |  |  |  |  |  |  |
|  | ON=C(c1cccc(C(=NO)N2CC2)c1)N1CC1 [Compound 9, 1,3-Bis(1-aziridino-1-hydroxyiminomethyl)benzene] | 0.060 (≈ 0.244 µM) | 0.329 (≈ 1.34 µM) |  | 1.506 (≈ 6.12 µM) | 0.788 (≈ 3.2 µM) | 0.063 (≈ 0.256 µM) | 0.066 (≈ 0.268 µM) |  |  |  |  |  |  |
|  | O/N=C(/C(=N/O)N1CC1)N1CC1 [Compound 1, 1,1′-[1,2-bis(hydroxyimino)-1,2-ethanediyl]bisaziridine] |  |  |  |  |  |  |  | 0.04 (≈ 0.235 µM) | 0.486 (≈ 2.86 µM) | 0.781 (≈ 4.59 µM) | 0.923 (≈ 5.42 µM) | 0.441 (≈ 2.59 µM) | 0.173 (≈ 1.02 µM) |
|  | ON=C(c1cc(C(=NO)N2CC2)cc(C(=NO)N2CC2)c1)N1CC1 [Compound 10, 1,3,5-Tris(1-aziridino-1-hydroxyiminomethyl)benzene] | 0.043 (≈ 0.13 µM) | 0.670 (≈ 2.03 µM) |  | 3.964 (≈ 12 µM) | 0.750 (≈ 2.27 µM) | 0.100 (≈ 0.303 µM) | 0.111 (≈ 0.336 µM) |  |  |  |  |  |  |
|  | ON=C(c1ccc(C(=NO)N2CC2)cc1)N1CC1 [Compound 7, 1,4-Bis(1-aziridino-1-hydroxyiminomethyl)benzene] | 0.018 (≈ 0.0731 µM) | 0.258 (≈ 1.05 µM) |  | 0.542 (≈ 2.2 µM) | 0.348 (≈ 1.41 µM) | 0.038 (≈ 0.154 µM) | 0.038 (≈ 0.154 µM) |  |  |  |  |  |  |
|  | ON=C(c1ccc(C(=NO)N2CC2)o1)N1CC1 [Compound 16, 2,5-Bis(1-aziridino-1-hydroxyiminomethyl)furan] | 0.039 (≈ 0.165 µM) | 0.481 (≈ 2.04 µM) |  | 1.661 (≈ 7.03 µM) | 1.359 (≈ 5.75 µM) | 0.099 (≈ 0.419 µM) | 0.073 (≈ 0.309 µM) |  |  |  |  |  |  |
|  | ON=C(c1ccc(C(=NO)N2CC2)nc1)N1CC1 [Compound 14, 2,5-Bis(1-aziridino-1-hydroxyiminomethyl)pyridine] | 0.011 (≈ 0.0445 µM) | 0.200 (≈ 0.809 µM) |  | 0.717 (≈ 2.9 µM) | 0.198 (≈ 0.801 µM) | 0.006 (≈ 0.0243 µM) | 0.034 (≈ 0.138 µM) |  |  |  |  |  |  |
| 0.054 (≈ 0.415 µM) | O=c1[nH]cc(F)c(=O)[nH]1 [Compound 5FU, 5-fluorouracil] |  |  |  |  |  |  |  |  |  |  |  |  |  |
